Here are results for one compound from patent publication US20040014721A1, “Method for using tethered bis(polyhydroxyphenyls) and O-alkyl derivatives thereof in treating inflammatory conditions of the central nervous system” (Oklahoma Medical Research Foundation, priority 2002, published 2004).

Entries after “also recorded” stand apart in the source; their conditions may differ. Read-outs that look alike come from different tables or passages of the source.

One data set relates to mice. Particulars: cited from earlier work.
Data set [1] concerns G93A-SOD1 mice. Put plainly: Immunochemistry of lumbar spinal cord of G93A-SOD1 mice on oral NDGA (GFAP, F4/80). It is filed as in vivo, mouse. The procedure: Mice were anesthetized with pentobarbital and perfused transcardially with 4% paraformaldehyde in phosphate buffer. The lumbar region (L1-L5) was processed for paraffin embedding. Immunochemistry was performed on […] sections, using commercially available antibodies, and tissue sections were routinely counterstained with hematoxylin and eosin. Polyclonal anti-SOD1 IgG was purchased from Chemicon (Temecula, Calif.). Polyclonal anti-5LOX IgG was purchased from Cayman Chemical (San Diego, Calif.). Monoclonal anti-5LOX was obtained from Transduction Laboratories (Lexington, Ky.). Polyclonal antibody against glial fibrillary acidic protein (GFAP) was purchased from Research Diagnostics International (Flanders, N.J.). FITC-conjugated anti-F4/80, which recognizes a microglial cell surface antigen (Drachman et al., 2002), was purchased from Serotec (Raleigh, N.C.). Positive control for 5LOX Western blots was SL-29 fibroblast lysate (Transduction Laboratories, provided with the antibody). Electrophoresis was performed on 4-20% gradient polyacrylamide gels, and bands were visualized with chemiluminescence detection reagents (Amersham).
Microglial proliferation is another neuroinflammatory feature inherent to motoneuron disease in the G93A-SOD1 mouse (Drachman et al., 2002). […]

Data set [2] concerns G93A-SOD1 mice. Put plainly: G93A-SOD1 mouse ALS model, NDGA i.p.: rotorod and survival. It is filed as in vivo. On the procedure: More subtle defects in motor performance are measured using a rotorod device. The animals are placed on a horizontal rod set to spin about its long axis, initially at 1 rpm. The revolution rate is increased at a constant rate of 1 rpm every 10 sec and the experiment continues until the animal falls off the rod. In contrast to mice bearing mutant SOD1 transgenes, animals bearing the wild-type human SOD1 transgenes display healthy motor function.
The G93A-SOD1 mice were used to test for in vivo efficacy of a benchmark tethered bis(polyhydroxyphenyl) compound, nordihydroguaiaretic acid (NDGA). In one experiment, 10 G93A-SOD1 animals were trained to the rotorod task at 85 days of age. At 90 days of age, animals were divided into two groups of 5 animals each. One group was injected intraperitoneally with NDGA (10 mg/kg, 5 days/week, in 95% saline/5% DMSO vehicle). The control group received vehicle only. Animals were tested on the rotorod device every 5 days subsequently.
Initially, rotorod performance characteristics improve in all mice as the animals become acquainted with the apparatus. At 100 days animals obtain peak performance (FIG. 3A). At timepoints subsequent to 100 day, animals decline in motor performance. In order to control for differences in initial strength amongst the 10 animals, all data subsequent to the 100 day timepoint was expressed as a percentage relative to the peak performance at 100 day (FIGS. 3B and 3C). […] When the data in FIG. 3B were assessed using repeated measures analysis of variance (ANOVA), a significant age X treatment effect was observed (p<0.005). At the 120D timepoint, the statistical assessment by Student's t-test indicates p<0.08 between drug and vehicle groups (i.e. 92% probability of a protective drug effect).
The potency of NDGA in vitro inspired further study in vivo. Two separate studies were performed. In the first experiment, 10 G93A-SOD1 mice were randomized into groups receiving 10 mg/kg NDGA i.p. or vehicle alone, beginning at 90 D of age. […] Rotarod performance tests were conducted at 5 D intervals. […] The median lifespan of the five NDGA-treated animals was 127 D, as compared to 121 D for the control group, representing a 20% extension of lifespan after the start of treatment.
In a separate experiment, NDGA was administered intraperitoneally to a small group of G93A-SOD1 mice (5 control and 5 drug-treated animals; 10 mg/kg 5 days/week beginning at 90 D). In this paradigm, NDGA also extended survival although logrank statistics were not formally significant (median lifespan after start of treatment=31 D in control animals and 37 D in NDGA-treated animals; p=0.074 by logrank test). […] The i.p. administration of NDGA was somewhat affected by the inclusion of DMSO in vehicle; G93A-SOD1 mice receiving DMSO alone died approximately 10 D sooner than normally would be expected from these animals. Taken together, the data strongly indicate a positive effect of NDGA on the prognosis of disease in rapidly-progressing G93A-SOD1 mice.
A general note: The rotarod test checks motor coordination on a turning rod.

The test system of the next data set is LnCAP Production of PSA. As to the kind of experiment: LnCAP production of PSA (ELISA). It is filed as cell-based. The conditions noted are these: Homo sapiens, LNCaP, 24 h. The procedure:
LnCAP prostate cancer cells were be cultured according to established methods (Horoszewicz et al., 1983). These cells product prostate-specific antigen (PSA), a serine protease that predicts metastatic potential ([…] et al., 2000). […] Each drug was tested in triplicate at each concentration. Medium was removed and tested for PSA concentration using a commercially available enzyme-linked immunosorbent assay (ELISA). Viability was determined in the adherent cells using the MTT assay.
Background: In an ELISA, binding on a coated surface is turned into a signal by an enzyme label.

A further data set can be described thus: Water solubility. It is filed as physicochemical.
The subject of data set [3] is G93A-SOD1 mice. The procedure:
NDGA was formulated into AIN93G laboratory mouse chow at 2500 ppm (approximately […] intake/mouse/day). […] G93A-SOD1 mice and nontransgenic littermates were fed this NDGA-containing diet, or a control diet, beginning at 90 D of age. An observer blinded to the treatment groups tested the animals on the rotarod task at 100 D and every 5 days thereafter. […] This is a very important point, as most forms of human ALS are sporadic and prophylactic treatment is not practical.

As a reminder, the IC50 is the concentration at which inhibition is half-maximal. Read a low IC50 as inhibition by little substance. As for `C[C@H](Cc1ccc(O)c(O)c1)[C@@H](C)Cc1ccc(O)c(O)c1` [NDGA, 1,4-bis (3,4-Dihydroxyphenyl)-2,3-dimethylbutane], in the data set on mice (0.5% of the diet, long-term, mice), the “effects of long-term feeding” value is “no ill effects”. In addition, the LD50 result in the data set on mice (mouse, in vivo, ip) was “greater than 500 mg/kg”. Further, the “F4/80-positive microglia, lumbar spinal cord” value in the data set with G93A-SOD1 mice [1] (120 D of age) is “diminished the number of F4/80-positive microglia”. In addition, in the data set on G93A-SOD1 mice [1] (120 D old mice), the “astrogliosis (GFAP-positive astrocytes), lumbar spinal cord” value is “significantly diminished astrogliosis; also recorded: significantly decreased the number of GFAP-positive astrocytes”. For the same compound, the “median lifespan after start of treatment” value in the data set with G93A-SOD1 mice [2] (10 mg/kg i.p. 5 days/week from 90 D) was found to be 37 D. In the data set with G93A-SOD1 mice [2] (10 mg/kg i.p. from 90 D), the “extension of lifespan after the start of treatment” value is given as 20% and the median lifespan was found to be 127 D. Moreover, the “reduction in rate of motor functional decline relative to vehicle” value in the data set with G93A-SOD1 mice [2] (10 mg/kg i.p. from 90 D, linear regression 100-120D) amounted to 38%. The “slope of motor functional decline” value with G93A-SOD1 mice [2] (10 mg/kg i.p., 100-120D) was determined as 2.96 % decrease/day. In the data set with G93A-SOD1 mice [2] (i.p. administration), the “rotarod performance” value is recorded as “not significantly affected”. Moreover, the IC50 in the data set with LnCAP Production of PSA was determined as 15 µM. Besides, in “Water solubility”, the “water solubility” value is on record as “limited water solubility”. For the same compound, in the data set with G93A-SOD1 mice [3] (2500 ppm in chow from 90 D), the “RR (survival, logrank analysis)” value is 0.27 and the “median age of death” value stood at 140 D. Further, in the data set with G93A-SOD1 mice [3] (mouse, in vivo), the “pathological effects at necropsy” value is reported as “no pathological effects of the drug were observed” and the weight changes result was “No weight changes were observed”. Moreover, in the data set with G93A-SOD1 mice [3] (oral), the “extension of paralytic phase (onset of paralysis to death)” value was “approximately 40%” and the “rotarod performance” value is given as “significantly improved rotarod performance”. In the data set with G93A-SOD1 mice [3] (oral NDGA), the “Onset of frank paralysis, mean ± SD” value stood at 121 ± 7.1 D; the “Onset of frank paralysis, median” value was 120 D; the “Time between onset and death, mean ± SD” value worked out at 16.5 ± 7.9 D; the “Time between onset and death, median” value was found to be 14 D. Moreover, in the data set with G93A-SOD1 mice [3] (oral, from 90 D), the “extension of median lifespan” value turned out to be 13 D and the “prolongation of lifespan after start of treatment” value came out at 32%.
